The subject of data set [1] is S. aureus 133. As to the kind of experiment: microbe, parasite or virus in culture. The data set is classed as cell-based, Staphylococcus aureus. The note with it: broth microdilution, Mueller-Hinton broth (without cation adjustment), CLSI, inoculum 5×10^4 CFU mL^−1, wild type. The procedure: (§1) Determination of antibacterial activity: ADEP1 was purified from the culture supernatant of S. hawaiiensis NRRL 15010 as described.4 ADEPs 2, 4, 7, 9 were custom synthesised by EMC Microcollections, Tübingen, or provided by AiCuris, Wuppertal, Germany. The minimal inhibitory concentration (MIC) was determined by broth microdilution in Mueller‐Hinton broth (without cation adjustment) according to the guidelines of the Clinical Laboratory Standards Institute (CLSI).69 The inoculum was set to 5×10^4 CFU mL^−1 to allow some distance to the determined spontaneous resistance frequencies. […] All other ADEPs were used from DMSO stock solutions kept at −20 °C.

For data set [2], the system named is S. aureus ATCC 29213. As to the kind of experiment: microbe, parasite or virus in culture. The data set is classed as cell-based, Staphylococcus aureus. The note with it: broth microdilution, Mueller-Hinton broth (without cation adjustment), CLSI, inoculum 5×10^4 CFU mL^−1, wild type. The procedure: as §1
Background: Dilution methods test growth across graded concentrations, often in twofold steps.

The next data set relates to B. subtilis 168. As to the kind of experiment: microbe, parasite or virus in culture. The data set is classed as cell-based, Bacillus subtilis. The note with it: broth microdilution, Mueller-Hinton broth (without cation adjustment), CLSI, inoculum 5×10^4 CFU mL^−1, wild type. The procedure: as §1
The subject of a further data set is E. faecalis ATCC 29212. As to the kind of experiment: microbe, parasite or virus in culture. The note with it: broth microdilution, Mueller-Hinton broth (without cation adjustment), CLSI, inoculum 5×10^4 CFU mL^−1, wild type. It counts as cell-based, Enterococcus faecalis. The procedure:
as §1

The test system of a further data set is E. faecalis 27159. The data set is classed as cell-based, Enterococcus faecalis. The note with it: broth microdilution, Mueller-Hinton broth; wildtype. The procedure: as §1
Another data set concerns S. pyogenes Wacker. It counts as cell-based, Streptococcus pyogenes. The note with it: broth microdilution, Mueller-Hinton broth; wildtype. The procedure:
as §1

The next data set has as its system S. pneumoniae G9A. It counts as cell-based, Streptococcus pneumoniae. The note with it: broth microdilution, Mueller-Hinton broth; wildtype. The procedure:
as §1

A further data set concerns E. faecalis RC1. The data set is classed as cell-based, Enterococcus faecalis. The note with it: resistant clone of E. faecalis 27159; ClpP G100→STOP (A96→V; M99→Y), premature stop. The procedure:
as §1
(§2) Screening for ADEP‐resistant mutants and determination of resistance rates: Single colonies of wild‐type strains grown on Mueller‐Hinton agar plates overnight were suspended in sterile saline and a final inoculum of 5×10^6 cells was spread on plates supplemented with different ADEP congeners at 4× and 10× the MIC. For B. subtilis strain 3xclpP, ADEP7‐containing Mueller‐Hinton agar plates were additionally supplemented with 1 mM IPTG. Resistant colonies were counted after 24 h at 37 °C and colonies were randomly chosen for MIC determinations and sequencing. Mutations in the clpP gene of the respective isolated mutants were analysed by amplifying the clpP gene (and upstream promoter region) by PCR and sequencing of the resulting PCR amplicons (LGC genomics). Sequencing data were analysed by using SnapGene software (GSL Biotech).

Another data set relates to E. faecalis RC2. The data set is classed as cell-based, Enterococcus faecalis. The note with it: resistant clone of E. faecalis 27159; ClpP H123→Q, active site. The procedure:
as §1, §2

The next data set has as its system E. faecalis RC3. It counts as cell-based, Enterococcus faecalis. The note with it: resistant clone of E. faecalis 27159; ClpP G74→D (ClpP core; α3). The procedure: as §1, §2
The test system of a further data set is E. faecalis RC4. The data set is classed as cell-based, Enterococcus faecalis. The note with it: resistant clone of E. faecalis 27159; ClpP S43→STOP, premature stop. The procedure:
as §1, §2

In a further data set the test system is E. faecalis RC5. It counts as cell-based, Enterococcus faecalis. The note with it: resistant clone of E. faecalis 27159; ClpP A180→V (C-terminus; α7). The procedure: as §1, §2
The test system of a further data set is E. faecalis RC6. The data set is classed as cell-based, Enterococcus faecalis. The note with it: resistant clone of E. faecalis 27159; ClpP R147→H (equatorial interface; α5). The procedure:
as §1, §2

Another data set concerns E. faecalis RC7. The data set is classed as cell-based, Enterococcus faecalis. The note with it: resistant clone of E. faecalis 27159; ClpP G68→D (ClpP core). The procedure: as §1, §2
In another data set the test system is E. faecalis RC8. It counts as cell-based, Enterococcus faecalis. The note with it: resistant clone of E. faecalis 27159; ClpP D170→Y, oligomerisation sensor. The procedure:
as §1, §2

The test system of another data set is S. pyogenes RC1. It counts as cell-based, Streptococcus pyogenes. The note with it: resistant clone of S. pyogenes Wacker; Y insertion after N40 (ClpP core; α2). The procedure: as §1
as §2, with “Resistant colonies were counted after 24 h at 37 °C and colonies were randomly chosen for MIC determinations and sequencing.” left out

For a further data set, the system named is S. pyogenes RC2. It counts as cell-based, Streptococcus pyogenes. The note with it: resistant clone of S. pyogenes Wacker; ClpP L46→P (ClpP core; α2). The procedure: as §1
as §2, with “Resistant colonies were counted after 24 h at 37 °C and colonies were randomly chosen for MIC determinations and sequencing.” left out

A further data set has as its system S. pneumoniae RC1. It counts as cell-based, Streptococcus pneumoniae. The note with it: resistant clone of S. pneumoniae G9A; ClpP A94→G (ClpP core; β4). The procedure: as §1, §2
The subject of the next data set is S. pneumoniae RC2. It counts as cell-based, Streptococcus pneumoniae. The note with it: resistant clone of S. pneumoniae G9A; ClpP START→I, no expression. The procedure: as §1, §2
The next data set deals with S. pneumoniae RC3. It counts as cell-based, Streptococcus pneumoniae. The note with it: resistant clone of S. pneumoniae G9A; ClpP R171→H, oligomerisation sensor. The procedure:
as §1, §2

The test system of the next data set is B. subtilis RC13. It counts as cell-based, Bacillus subtilis. The note with it: resistant clone of B. subtilis 168; ClpP I93→STOP, premature stop. The procedure:
as §1, §2

A further data set concerns B. subtilis RC14. The data set is classed as cell-based, Bacillus subtilis. The note with it: resistant clone of B. subtilis 168; ClpP G107→S (ClpP core). The procedure: as §1, §2
Another data set relates to B. subtilis RC15. It counts as cell-based, Bacillus subtilis. The note with it: resistant clone of B. subtilis 168; ClpP G69→S (ClpP core). The procedure:
as §1, §2

For the next data set, the system named is B. subtilis RC16. It counts as cell-based, Bacillus subtilis. The note with it: resistant clone of B. subtilis 168; ClpP I44→F (ClpP core; α2). The procedure:
as §1, §2

In a further data set the test system is B. subtilis RC17. The data set is classed as cell-based, Bacillus subtilis. The note with it: resistant clone of B. subtilis 168; ClpP D172→V, active site. The procedure: as §1, §2
The next data set deals with B. subtilis RC18. It counts as cell-based, Bacillus subtilis. The note with it: resistant clone of B. subtilis 168; ClpP L190→S, ADEP binding site. The procedure: as §1, §2
A further data set has as its system B. subtilis RC19. The data set is classed as cell-based, Bacillus subtilis. The note with it: resistant clone of B. subtilis 168; ClpP Y183→C (C-terminus; α7). The procedure:
as §1, §2

Data set [3] is described as follows: Stability of dissolved compound. It counts as physicochemical. The note with it: dissolved in DMSO; reason for fresh dissolution before MIC determination. The procedure:
as §1

For data set [4], the system named is B. subtilis, Enterococcus faecium, E. faecalis, S. pneumoniae, and Streptococcus pyogenes. As to the kind of experiment: Spontaneous resistance frequency, further Firmicutes. The data set is classed as cell-based. The note with it: same range as the S. aureus resistance rates (10^−6). The procedure: as §2
For data set [5], the system named is S. aureus 133. As to the kind of experiment: Spontaneous resistance rate on ADEP-containing agar. The note with it: ADEP exposure 4× MIC in Mueller-Hinton agar; 5×10^6 cells plated, colonies counted after 24 h at 37 °C. It counts as cell-based, Staphylococcus aureus. The procedure: as §2
Data set [6] relates to S. aureus ATCC 29213. Described as above. The note with it: ADEP exposure 4× MIC in Mueller-Hinton agar; 5×10^6 cells plated, colonies counted after 24 h at 37 °C. It counts as cell-based, Staphylococcus aureus. The procedure:
as §2

Another data set relates to S. aureus. As to the kind of experiment: MIC against S. aureus, summary of Table 1. The note with it: text summary of Table 1, strain not named. It counts as cell-based, Staphylococcus aureus. The procedure: as §1

Structures are written as SMILES. Converted amounts (≈) assume the structure as drawn. Like-named read-outs stand apart in the source and are kept apart here. Positions of bridges follow the written chain, without caps; N, C: chain ends. Non-standard residues stand in square brackets, D forms with d. Residues, ends and D or L forms follow the SMILES beside them. *: point of attachment. Octatrienoyl(2E,4E,6E) = C/C=C/C=C/C=C/C(=O)*; Pro(4R-Me) = C[C@H]1CN[C@H](C(=O)O)C1; NMeA = CN[C@@H](C)C(=O)O; X1 = CCC/C=C/C(=O)*

For `C/C=C/C=C/C=C/C(=O)N[C@@H](Cc1ccccc1)C(=O)N[C@H]1COC(=O)[C@@H]2C[C@@H](C)CN2C(=O)[C@H](C)NC(=O)[C@H](C)N(C)C(=O)[C@@H]2CCCN2C1=O` [ADEP1] ({Octatrienoyl(2E,4E,6E)}-FSP[NMeA]A[Pro(4R-Me)]; ester 2-C), the MIC in the data set on S. aureus 133 [1] worked out at 0.5 µg/mL (≈ 0.696 µM); with S. aureus ATCC 29213 [2], 1 µg/mL (≈ 1.39 µM); in the data set with B. subtilis 168, 0.063 µg/mL (≈ 0.0876 µM); against E. faecalis ATCC 29212 it was 0.063 µg/mL (≈ 0.0876 µM); in the data set on E. faecalis 27159 it was 0.12 µg/mL (≈ 0.167 µM); against S. pyogenes Wacker it was 0.12 µg/mL (≈ 0.167 µM). Besides, the MIC with S. pneumoniae G9A was 0.12 µg/mL (≈ 0.167 µM); with E. faecalis RC1, more than 64 µg/mL; against E. faecalis RC2 it was more than 64 µg/mL; in the data set on E. faecalis RC3 it was more than 64 µg/mL; in the data set on E. faecalis RC4 it was more than 64 µg/mL; against E. faecalis RC5 it was more than 64 µg/mL. Further, the MIC is more than 64 µg/mL in the data set on E. faecalis RC6; more than 64 µg/mL with E. faecalis RC7; more than 64 µg/mL in the data set with E. faecalis RC8; more than 32 µg/mL in the data set on S. pyogenes RC1; more than 32 µg/mL in the data set with S. pyogenes RC2; more than 32 µg/mL with S. pneumoniae RC1. Further, the MIC in the data set with S. pneumoniae RC2 was more than 32 µg/mL; against S. pneumoniae RC3, more than 32 µg/mL; with B. subtilis RC13 it was more than 64 µg/mL; in the data set with B. subtilis RC14 it was 0.5 µg/mL (≈ 0.696 µM); with B. subtilis RC15 it was more than 64 µg/mL; against B. subtilis RC16, 8 µg/mL (≈ 11.1 µM). Moreover, the MIC against B. subtilis RC17 was more than 64 µg/mL; in the data set with B. subtilis RC18, 16 µg/mL (≈ 22.3 µM); against B. subtilis RC19, more than 64 µg/mL. The stability entry in data set [3] is reported as “rather unstable”. Further, the spontaneous resistance frequencies entry in data set [4] was “in the same range”.
In the case of `C[C@H]1c2cccc(O)c2C(=O)C2=C(O)[C@]3(O)C(=O)C(C(N)=O)=C(O)[C@@H](N(C)C)[C@@H]3[C@@H](O)[C@@H]21` [Doxycycline, reference compound], the MIC was 0.06 µg/mL (≈ 0.135 µM) in the data set on S. aureus 133 [1] (Staphylococcus aureus, 133, read-out: MIC); 0.06 µg/mL (≈ 0.135 µM) in the data set on S. aureus ATCC 29213 [2] (Staphylococcus aureus, ATCC29213, read-out: MIC); 0.125 µg/mL (≈ 0.281 µM) in the data set with B. subtilis 168 (Bacillus subtilis, 168, read-out: MIC); 4 to 8 µg/mL (≈ 9 to 18 µM) in the data set with E. faecalis ATCC 29212 (Enterococcus faecalis, ATCC29212, read-out: MIC).
Consider `CCC/C=C/C(=O)N[C@@H](Cc1ccccc1)C(=O)N[C@H]1COC(=O)[C@@H]2CCCN2C(=O)[C@H](C)NC(=O)[C@H](C)N(C)C(=O)[C@@H]2CCCN2C1=O` [ADEP7] (X1-FSP[NMeA]AP; ester 2-C), for which the MIC in the data set with S. aureus 133 [1] was 4 µg/mL (≈ 5.88 µM); in the data set on B. subtilis 168 it was 0.5 µg/mL (≈ 0.734 µM); against E. faecalis ATCC 29212, 2 µg/mL (≈ 2.94 µM). Besides, the Resistance rate in the data set on S. aureus 133 [5] was 4×10^−6; with S. aureus ATCC 29213 [6], 6×10^−7. Besides, the “minimal inhibitory concentration (MIC) against S. aureus” value with S. aureus came to 8 µg/mL (≈ 11.8 µM).

These data come from publication PMC7496096, “Functional Characterisation of ClpP Mutations Conferring Resistance to Acyldepsipeptide Antibiotics in Firmicutes” (Chembiochem, 2020).
